Assay results: ChEMBL document CHEMBL1201862, “PubChem BioAssay data set” (2004)
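96-well plates; 48 h exposure; 5 concentrations. Endpoints by linear interpolation between flanking doses. Not reached: highest tested concentration assigned. Here, GI50 denotes the concentration required for 50% inhibition of growth.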 Activity calls are given as the source filed them. Rule as the data show it: active = GI50 up to about 1.1 µM and inactive = higher.

Legend:
Assay in all cases: DTP human tumour cell line panel, 48 h
IGROV-1 = system: IGROV-1
HOP-92 = system: HOP-92
SF-268 = system: SF-268
SK-OV-3 = system: SK-OV-3
SNB-19 = system: SNB-19
NCI-H226 = system: NCI-H226
RPMI-8226 = system: RPMI-8226
MCF7 = system: MCF7
SF-295 = system: SF-295
RXF 393 = system: RXF 393
K562 = system: K562
UO-31 = system: UO-31
SNB-75 = system: SNB-75
BT-549 = system: BT-549
COLO 205 = system: COLO 205
OVCAR-4 = system: OVCAR-4
786-0 = system: 786-0
OVCAR-5 = system: OVCAR-5
NCI-H460 = system: NCI-H460
SR = system: SR

Measured: GI50

O=C(CCSC(CC(=O)c1ccc(Cl)cc1)c1ccc(Cl)cc1)Nc1ccc(Cl)cc1 (configuration not stated)
inactive: IGROV-1 14.9 µM | HOP-92 17.6 µM | SF-268 15.2 µM | SK-OV-3 20.7 µM | SNB-19 13.7 µM | NCI-H226 20.3 µM | RPMI-8226 2.19 µM | MCF7 3.72 µM | SF-295 9.44 µM | RXF 393 14.9 µM | K562 4.06 µM | UO-31 14 µM | SNB-75 21.8 µM | BT-549 13.5 µM | COLO 205 18.6 µM | OVCAR-4 14.7 µM | 786-0 13.8 µM | OVCAR-5 16.4 µM | NCI-H460 10.2 µM | SR 2.91 µM

O=C(/C=C/c1ccc(OCC(=O)N2CCN(c3ccccc3)CC2)cc1)c1ccc(Cl)cc1
inactive: IGROV-1 38.6 µM | HOP-92 13.3 µM | SF-268 26.2 µM | SK-OV-3 27.5 µM | SNB-19 18.6 µM | NCI-H226 50.8 µM | RPMI-8226 > 100 µM | MCF7 > 100 µM | SF-295 18.6 µM | RXF 393 21.9 µM | K562 > 100 µM | UO-31 > 71 µM | SNB-75 12 µM | BT-549 43.4 µM | COLO 205 > 100 µM | OVCAR-4 32.6 µM | 786-0 22 µM | OVCAR-5 > 100 µM | NCI-H460 > 94.2 µM | SR > 100 µM

Oc1ccc(-c2cc(-c3cc(-c4ccc(O)cc4)no3)on2)cc1
inactive: IGROV-1 43.7 µM | HOP-92 > 100 µM | SF-268 41.2 µM | SK-OV-3 > 100 µM | SNB-19 > 100 µM | NCI-H226 > 75.9 µM | RPMI-8226 3.52 µM | MCF7 34.2 µM | SF-295 35.1 µM | RXF 393 > 100 µM | K562 1.75 µM | UO-31 10.8 µM | SNB-75 > 52.8 µM | BT-549 17.8 µM | COLO 205 > 100 µM | OVCAR-4 > 100 µM | 786-0 > 100 µM | OVCAR-5 > 53.3 µM | NCI-H460 41.6 µM | SR 19.1 µM

CN(CCN)[C@H](CSSC[C@@H](c1ccccc1O)N(C)CCN)c1ccccc1O
inactive: HOP-92 17.7 µM | SF-268 12.4 µM | SK-OV-3 11.7 µM | SNB-19 12.1 µM | NCI-H226 11.7 µM | RPMI-8226 12.9 µM | MCF7 14.9 µM | SF-295 6.85 µM | RXF 393 18.9 µM | K562 7.18 µM | UO-31 10.1 µM | SNB-75 14.7 µM | BT-549 9.95 µM | COLO 205 24.8 µM | OVCAR-4 14.1 µM | 786-0 7.57 µM | OVCAR-5 13.9 µM | NCI-H460 4.98 µM | SR 2.87 µM

CCN(CC)/[N+]([O-])=N/OCOC
inactive: IGROV-1 > 100 µM | HOP-92 > 100 µM | SF-268 > 100 µM | SK-OV-3 > 100 µM | SNB-19 > 100 µM | NCI-H226 > 100 µM | RPMI-8226 > 100 µM | MCF7 > 100 µM | SF-295 > 100 µM | RXF 393 > 100 µM | K562 > 100 µM | UO-31 > 100 µM | SNB-75 > 100 µM | BT-549 > 100 µM | COLO 205 > 100 µM | OVCAR-4 > 100 µM | 786-0 > 100 µM | OVCAR-5 > 100 µM | NCI-H460 > 100 µM | SR > 100 µM

Cc1cccc(/C=N/NC(=S)Nc2ccccc2)n1
inactive: IGROV-1 2.84 µM | HOP-92 5.15 µM | SF-268 3.31 µM | SK-OV-3 9.53 µM | SNB-19 11.9 µM | NCI-H226 6.37 µM | RPMI-8226 3.48 µM | MCF7 2.89 µM | SF-295 6.3 µM | RXF 393 5.48 µM | K562 4.1 µM | UO-31 3.43 µM | SNB-75 3.67 µM | BT-549 7.53 µM | COLO 205 2.75 µM | OVCAR-4 6.31 µM | 786-0 2.27 µM | OVCAR-5 5.85 µM | NCI-H460 1.57 µM | SR 16.6 µM

O=C1OC(c2ccccc2)=N/C1=C\c1cccc(F)c1
inactive: IGROV-1 52.5 µM | HOP-92 > 100 µM | SF-268 34.5 µM | SK-OV-3 > 100 µM | SNB-19 55 µM | NCI-H226 25.9 µM | RPMI-8226 19.7 µM | MCF7 > 100 µM | SF-295 40.8 µM | RXF 393 > 100 µM | K562 > 100 µM | UO-31 > 100 µM | SNB-75 64.3 µM | BT-549 32.4 µM | COLO 205 > 100 µM | OVCAR-4 31.3 µM | 786-0 51.9 µM | OVCAR-5 > 100 µM | NCI-H460 60.5 µM | SR 22.9 µM

CC1(C)OC(=O)N(c2ccccc2)C12C=Cc1cccc([N+](=O)[O-])c1O2 (configuration not stated)
inactive: IGROV-1 96.6 µM | HOP-92 > 100 µM | SF-268 > 100 µM | SK-OV-3 28.2 µM | SNB-19 > 100 µM | NCI-H226 > 100 µM | RPMI-8226 53.3 µM | MCF7 79.3 µM | SF-295 55.1 µM | RXF 393 > 100 µM | K562 35.1 µM | UO-31 45.3 µM | SNB-75 35.6 µM | BT-549 > 100 µM | COLO 205 45.1 µM | OVCAR-4 56.2 µM | 786-0 > 100 µM | OVCAR-5 > 100 µM | NCI-H460 > 100 µM | SR 9.18 µM

O=C(O)CCCC(=O)Nn1c(Cc2ccc(Cl)cc2)n[nH]c1=O
inactive: IGROV-1 > 100 µM | HOP-92 > 100 µM | SF-268 > 100 µM | SK-OV-3 > 100 µM | NCI-H226 > 100 µM | RPMI-8226 > 100 µM | MCF7 > 100 µM | SF-295 > 100 µM | RXF 393 > 100 µM | K562 > 100 µM | UO-31 14.9 µM | SNB-75 > 10 µM | BT-549 > 100 µM | COLO 205 > 100 µM | OVCAR-4 > 100 µM | 786-0 > 100 µM | OVCAR-5 > 100 µM | SR > 100 µM

Cc1ccc(CNNC(=O)c2cc[n+]([BH2-]C#N)cc2)cc1
inactive: IGROV-1 > 100 µM | HOP-92 > 100 µM | SF-268 > 100 µM | SK-OV-3 > 100 µM | SNB-19 > 100 µM | NCI-H226 > 100 µM | RPMI-8226 > 100 µM | MCF7 18.1 µM | SF-295 > 100 µM | RXF 393 > 100 µM | K562 49.2 µM | UO-31 > 100 µM | SNB-75 72.6 µM | BT-549 > 100 µM | COLO 205 > 100 µM | OVCAR-4 > 100 µM | 786-0 > 100 µM | OVCAR-5 > 100 µM | NCI-H460 > 100 µM | SR > 100 µM
